# Patent US20090325964A1, “Piperazine Metabotropic Glutamate Receptor 5 (MGLUR5) Negative Allosteric Modulators For Anxiety/Depression” (Wyeth, priority 2008, published 2009)
# Biological target: T1, rat mGluR5 receptor (Rattus norvegicus, UniProt P31424)
# T1 construct: expressed in transfected cells; host or cells: HEK-293
# Assay: [3H]-MPEP displacement binding assay, HEK-293 cell membranes expressing rat mGluR5
# Conditions: @ 10 μM compound; Biological Activity, Table 2A
# How it was run: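 Membranes from HEK-293 cells expressing rat mGluR5 (12-25 μg protein), incubated 60 min at room temperature with 4 nM [3H]-MPEP in 50 mM Tris pH 7.5, then filtered. Nonspecific binding defined with 10 μM MPEP.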
# T1 sequence (P31424 21-1203): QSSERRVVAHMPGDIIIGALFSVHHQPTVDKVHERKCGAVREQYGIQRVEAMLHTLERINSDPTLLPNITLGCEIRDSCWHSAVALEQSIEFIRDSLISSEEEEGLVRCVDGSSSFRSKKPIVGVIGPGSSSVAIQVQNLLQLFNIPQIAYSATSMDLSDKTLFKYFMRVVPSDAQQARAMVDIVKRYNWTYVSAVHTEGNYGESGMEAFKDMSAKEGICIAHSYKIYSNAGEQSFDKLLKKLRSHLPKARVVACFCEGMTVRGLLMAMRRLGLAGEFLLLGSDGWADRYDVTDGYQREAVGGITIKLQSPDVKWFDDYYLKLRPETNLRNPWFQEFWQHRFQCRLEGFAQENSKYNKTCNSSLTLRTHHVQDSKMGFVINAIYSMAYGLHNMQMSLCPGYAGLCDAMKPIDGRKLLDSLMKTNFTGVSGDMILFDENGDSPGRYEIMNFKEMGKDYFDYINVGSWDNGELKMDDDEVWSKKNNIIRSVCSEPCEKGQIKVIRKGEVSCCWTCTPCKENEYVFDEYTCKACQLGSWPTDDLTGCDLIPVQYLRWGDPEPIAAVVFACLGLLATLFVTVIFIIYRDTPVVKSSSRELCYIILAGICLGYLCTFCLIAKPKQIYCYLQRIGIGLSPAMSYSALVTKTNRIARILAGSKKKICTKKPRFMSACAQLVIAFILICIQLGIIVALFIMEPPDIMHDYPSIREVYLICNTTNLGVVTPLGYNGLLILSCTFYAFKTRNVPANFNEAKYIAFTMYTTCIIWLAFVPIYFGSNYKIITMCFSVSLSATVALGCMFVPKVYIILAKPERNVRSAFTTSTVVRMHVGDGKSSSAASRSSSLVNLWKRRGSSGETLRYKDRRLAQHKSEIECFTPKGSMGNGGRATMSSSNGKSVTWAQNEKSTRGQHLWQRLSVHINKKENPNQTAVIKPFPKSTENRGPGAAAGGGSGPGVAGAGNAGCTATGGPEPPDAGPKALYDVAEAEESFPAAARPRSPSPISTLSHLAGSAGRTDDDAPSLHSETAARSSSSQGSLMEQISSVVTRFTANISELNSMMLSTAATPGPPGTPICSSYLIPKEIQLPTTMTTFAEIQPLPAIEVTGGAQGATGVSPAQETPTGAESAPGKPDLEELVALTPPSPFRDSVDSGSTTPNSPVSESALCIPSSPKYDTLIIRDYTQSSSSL
row,SMILES,PCT INHIB (%) @ 10 μM
1,"O=C(c1cccc(C#Cc2ccccn2)c1)N1CCN(c2ncccc2C(F)(F)F)CC1 [Compound 146, 1-[3-(pyridin-2-ylethynyl)benzoyl]-4-[3-(trifluoromethyl)pyridin-2-yl]piperzine]",48%

# Same assay, conditions: @ 10 μM compound; Biological Activity, Table 2A; read-out: PCT INHIB (%) @ 10 μM
row,SMILES,inhibition at 10 µM
1,"Cc1cc(C)nc(N2CCN(C(=O)c3ccnc(C#Cc4ccccc4)c3)CC2)n1 [Compound 140, 4,6-dimethyl-2-{4-[2-(phenylethynyl)isonicotinoyl]piperazin-1-yl}pyrimidine]",37%
2,"N#Cc1cccnc1N1CCN(C(=O)c2cccc(C#Cc3ccccc3)c2)CC1 [Compound 141, 2-{4-[3-(phenylethynyl)benzoyl]piperazin-1-yl}nicotinonitrile]",78%
3,"O=C(c1cccc(C#Cc2ccccc2)c1)N1CCN(c2ccncc2)CC1 [Compound 142, 1-[3-(phenylethynyl)benzoyl]-4-pyridin-4-ylpiperazine]",53%
4,"Cc1cccc(N2CCN(C(=O)c3cncc(C#Cc4ccccc4)c3)CC2)n1 [Compound 143, 1-(6-methylpyridin-2-yl)-4-{(5-(phenylethynyl)pyridin-3-yl]carbonyl}piperazine]",49%
5,"O=C(c1ccnc(C#Cc2ccccc2)c1)N1CCN(c2ccncc2)CC1 [Compound 144, 1-[2-(phenylethynyl)isonicotinoyl]-4-pyridin-4-ylpiperazine]",10%
6,"COc1ccc(C(=O)N2CCN(c3ccncc3)CC2)cc1C#Cc1ccccc1 [Compound 145, 1-[4-methoxy-3-(phenylethynyl)benzoyl]-4-pyridin-4-ylpiperazine]",91%
7,"Cc1cccc(N2CCN(C(=O)c3cccc(C#Cc4ccccn4)c3)CC2)n1 [Compound 147, 1-(6-methylpyridin-2-yl)-4-[3-(pyridin-2-ylethynyl)benzoyl]piperazine]",80%
8,N#Cc1cccnc1N1CCN(C(=O)c2cccc(C#Cc3ccccn3)c2)CC1 [Compound 148],74%
9,"O=C(c1cccc(C#Cc2ccccn2)c1)N1CCN(c2ncc(C(F)(F)F)cc2Cl)CC1 [Compound 149, 1-[3-chloro-5-(trifluoromethyl)pyridin-2-yl]-4-[3-(pyridin-2-ylethynyl)benzoyl]piperazine]",72%

# Same assay, conditions: Biological Activity, Table 2A; read-out: Median Ki
row,SMILES,Ki
1,"N#Cc1cccnc1N1CCN(C(=O)c2cccc(C#Cc3ccccc3)c2)CC1 [Compound 141, 2-{4-[3-(phenylethynyl)benzoyl]piperazin-1-yl}nicotinonitrile]",1.09 µM
2,"COc1ccc(C(=O)N2CCN(c3ccncc3)CC2)cc1C#Cc1ccccc1 [Compound 145, 1-[4-methoxy-3-(phenylethynyl)benzoyl]-4-pyridin-4-ylpiperazine]",1.3 µM
3,"Cc1cccc(N2CCN(C(=O)c3cccc(C#Cc4ccccn4)c3)CC2)n1 [Compound 147, 1-(6-methylpyridin-2-yl)-4-[3-(pyridin-2-ylethynyl)benzoyl]piperazine]",3.02 µM
4,N#Cc1cccnc1N1CCN(C(=O)c2cccc(C#Cc3ccccn3)c2)CC1 [Compound 148],1.63 µM
5,"O=C(c1cccc(C#Cc2ccccn2)c1)N1CCN(c2ncc(C(F)(F)F)cc2Cl)CC1 [Compound 149, 1-[3-chloro-5-(trifluoromethyl)pyridin-2-yl]-4-[3-(pyridin-2-ylethynyl)benzoyl]piperazine]",2.76 µM

# Same assay, conditions: [3H]-MPEP 4 nM; Table 4A; read-out: Median Ki
row,SMILES,Ki
1,"Cc1cccc(OCc2cccc(C(=O)N3CCN(c4ccccn4)CC3)c2)c1 [Compound 164, 1-{3-[(3-methylphenoxy)methyl]benzoyl}-4-pyridin-2-ylpiperazine]",1.75 µM
2,"N#Cc1cccc(OCc2cccc(C(=O)N3CCN(c4ccccn4)CC3)c2)c1 [Compound 165, 3-({3-[(4-pyridin-2-ylpiperazin-1-yl)carbonyl]benzyl}oxy)benzonitrile]",2.97 µM
3,"CCc1cccc(OCc2cccc(C(=O)N3CCN(c4ccccn4)CC3)c2)c1 [Compound 166, 1-{3-[(3-ethylphenoxy)methyl]benzoyl}-4-pyridin-2-ylpiperazine]",> 10 µM
4,"COc1cccc(OCc2cccc(C(=O)N3CCN(c4ccccn4)CC3)c2)c1 [Compound 167, 1-{3-[(3-methoxyphenoxy)methyl]benzoyl}-4-pyridin-2-ylpiperazine]",> 10 µM
5,"O=C(c1cccc(COc2cccc(Cl)c2)c1)N1CCN(c2ccccn2)CC1 [Compound 168, 1-{3-[(3-chlorophenoxy)methyl]benzoyl}-4-pyridin-2-ylpiperazine]",0.813 µM
6,"O=C(c1cccc(COc2cccc(Br)c2)c1)N1CCN(c2ccccn2)CC1 [Compound 169, 1-{3-[(3-bromophenoxy)methyl]benzoyl}-4-pyridin-2-ylpiperazine]",0.862 µM
7,"O=C(c1cccc(COc2ccccn2)c1)N1CCN(c2ccccn2)CC1 [Compound 170, 1-pyridin-2-yl-4-{3-[(pyridin-2-yloxy)methyl]benzoyl}piperazine]",> 10 µM
8,"O=C(c1cccc(COc2ccccc2)c1)N1CCN(c2ccccn2)CC1 [Compound 171, 1-[3-(phenoxymethyl)benzoyl]-4-pyridin-2-ylpiperazine]",> 10 µM

# Same assay, conditions: single point, @ 10 μM compound; Table 3A; read-out: PCT INHIB (%) @ 10 μM
row,SMILES,inhibition at 10 µM
1,"Cc1cccc(COc2cccc(C(=O)N3CCN(c4ccccn4)CC3)c2)c1 [Compound 150, 1-{3-[(3-methylbenzyl)oxy]benzoyl}-4-pyridin-2-ylpiperazine]",0%
2,"COc1ccc(C(=O)N2CCN(c3ccccn3)CC2)cc1OCc1cccc(C)c1 [Compound 151, 1-{4-methoxy-3-[(3-methylbenzyl)oxy]benzoyl}-4-pyridin-2-ylpiperazine]",0%
3,"O=C(c1cccc(OCc2ccccc2)c1)N1CCN(c2ccccn2)CC1 [Compound 152, 1-[3-(benzyloxy)benzoyl]-4-pyridin-2-ylpiperazine]",0%
4,"O=C(c1cccc(OCc2cccc(Br)c2)c1)N1CCN(c2ccccn2)CC1 [Compound 153, 1-{3-[(3-bromobenzyl)oxy]benzoyl}-4-pyridin-2-ylpiperazine]",23%
5,"O=C(c1cccc(OCc2cccc(Cl)c2)c1)N1CCN(c2ccccn2)CC1 [Compound 154, 1-{3-[(3-chlorobenzyl)oxy]benzoyl}-4-pyridin-2-ylpiperazine]",36%
6,"COc1cccc(COc2cccc(C(=O)N3CCN(c4ccccn4)CC3)c2)c1 [Compound 155, 1-{3-[(3-methoxybenzyl)oxy]benzoyl}-4-pyridin-2-ylpiperazine]",0%
7,"N#Cc1cccc(COc2cccc(C(=O)N3CCN(c4ccccn4)CC3)c2)c1 [Compound 156, 3-({3-[(4-pyridin-2-ylpiperazin-1-yl)carbonyl]phenoxy}methyl)benzonitrile]",0%
8,"O=C(c1cccc(OCc2cccc(F)c2)c1)N1CCN(c2ccccn2)CC1 [Compound 157, 1-{3-[(3-fluorobenzyl)oxy]benzoyl}-4-pyridin-2-ylpiperazine]",18%
9,"COc1ccc(C(=O)N2CCN(c3ccccn3)CC2)cc1OCc1ccccc1 [Compound 158, 1-[3-(benzyloxy)-4-methoxybenzoyl]-4-pyridin-2-ylpiperazine]",0%
10,"COc1ccc(C(=O)N2CCN(c3ccccn3)CC2)cc1OCc1cccc(Br)c1 [Compound 159, 1-{3-[(3-bromobenzyl)oxy]-4-methoxybenzoyl}-4-pyridin-2-ylpiperazine]",26%
11,"COc1ccc(C(=O)N2CCN(c3ccccn3)CC2)cc1OCc1cccc(Cl)c1 [Compound 160, 1-{3-[(3-chlorobenzyl)oxy]-4-methoxybenzoyl}-4-pyridin-2-ylpiperazine]",11%
12,"COc1cccc(COc2cc(C(=O)N3CCN(c4ccccn4)CC3)ccc2OC)c1 [Compound 161, 1-{4-methoxy-3-[(3-methoxybenzyl)oxy]benzoyl}-4-pyridin-2-ylpiperazine]",0%
13,"COc1ccc(C(=O)N2CCN(c3ccccn3)CC2)cc1OCc1cccc(C#N)c1 [Compound 162, 3-({2-methoxy-5-[(4-pyridin-2-ylpiperazin-1-yl)carbonyl]phenoxy}methyl)benzonitrile]",0%
14,"COc1ccc(C(=O)N2CCN(c3ccccn3)CC2)cc1OCc1cccc(F)c1 [Compound 163, 1-{3-[(3-fluorobenzyl)oxy]-4-methoxybenzoyl}-4-pyridin-2-ylpiperazine]",11%

# Same assay, conditions: single point, @ 10 μM compound; Table 5; read-out: PCT INHIB (%) @ 10 μM
row,SMILES,inhibition at 10 µM
1,"O=S(=O)(c1cccc(C#Cc2cccc(O)c2)c1)N1CCN(c2ccccn2)CC1 [Compound 172, 3-({3-[(4-pyridin-2-ylpiperazin-1-yl)sulfonyl]phenyl}ethynyl)phenol]",0%
2,"O=S(=O)(c1cccc(C#CC2=CCCCC2)c1)N1CCN(c2ccccn2)CC1 [Compound 173, 1-{[3-(cyclohex-1-en-1-ylethynyl)phenyl]sulfonyl}-4-pyridin-2-ylpiperazine]",0%
3,"O=S(=O)(c1cccc(C#CCc2ccccc2)c1)N1CCN(c2ccccn2)CC1 [Compound 174, 1-{[3-(3-phenylprop-1-yn-1-yl)phenyl]sulfonyl}-4-pyridin-2-ylpiperazine]",0%
4,"COc1cccc(C#Cc2cccc(S(=O)(=O)N3CCN(c4ccccn4)CC3)c2)c1 [Compound 175, 1-({3-[(3-methoxyphenyl)ethynyl]phenyl}sulfonyl)-4-pyridin-2-ylpiperazine]",0%
5,"O=S(=O)(c1cccc(C#Cc2ccccc2)c1)N1CCN(c2ccccn2)CC1 [Compound 176, 1-{[3-(phenylethynyl)phenyl]sulfonyl}-4-pyridin-2-ylpiperazine]",0%

# Same assay, conditions: single point, @ 10 μM compound; Table 6; read-out: PCT INHIB (%) @ 10 μM
row,SMILES,inhibition at 10 µM
1,"Oc1cccc(C#Cc2cccc(CN3CCN(c4ccccn4)CC3)c2)c1 [Compound 177, 3-({3-[(4-pyridin-2-ylpiperazin-1-yl)methyl]phenyl}ethynyl)phenol]",13%
2,"C(#Cc1cccc(CN2CCN(c3ccccn3)CC2)c1)C1=CCCCC1 [Compound 178, 1-[3-(cyclohex-1-en-1-ylethynyl)benzyl]-4-pyridin-2-ylpiperazine]",0%
3,"C(#Cc1cccc(CN2CCN(c3ccccn3)CC2)c1)Cc1ccccc1 [Compound 179, 1-[3-(3-phenylprop-1-yn-1-yl)benzyl]-4-pyridin-2-ylpiperazine]",0%
4,"Nc1cccc(C#Cc2cccc(CN3CCN(c4ccccn4)CC3)c2)c1 [Compound 180, 3-({3-[(4-pyridin-2-ylpiperazin-1-yl)methyl]phenyl}ethynyl)aniline]",0%
5,"COc1cccc(C#Cc2cccc(CN3CCN(c4ccccn4)CC3)c2)c1 [Compound 181, 1-{3-[(3-methoxyphenyl)ethynyl]benzyl}-4-pyridin-2-ylpiperazine]",0%
